Data taken from US20220125765A1, “PHARMACEUTICAL COMBINATIONS COMPRISING MEBENDAZOLE AND A STRONG OR MODERATE CYP1A2 INHIBITOR” (ZEPHAPHARM LTD, priority 2019, published 2022).
Like-named read-outs stand apart in the source and are kept apart here.

Legend:
SXFS RH-41 = assay: 2D monolayer CellTiter-Blue viability, soft tissue sarcoma RH-41; type: cell-based; settings: 72 h
Method: (§1) Seventeen compounds, including mebendazole (Batch no. […] Efficacy of compounds was assessed using CellTiter-Blue® Cell Viability Assay. Anti-tumor activity is expressed as absolute and relative IC50 and IC70 values, calculated by non-linear regression analysis.

[1] = system: 8 neuroblastoma and 13 sarcoma derived cell lines; assay: 2D monolayer CellTiter-Blue viability, panel geometric mean (Example 9); type: cell-based; settings: 21 cell lines, 72 hours
Method: as §1

NBXF SHEP = assay: 2D monolayer CellTiter-Blue viability, neuroblastoma SHEP; type: cell-based; settings: 72 h
Method: as §1

SXFS 1301 = assay: 2D monolayer CellTiter-Blue viability, soft tissue sarcoma SXFS 1301; type: cell-based; settings: 72 h
Method: as §1

NBXF SK-N-MC = assay: 2D monolayer CellTiter-Blue viability, neuroblastoma SK-N-MC; type: cell-based; settings: 72 h
Method: as §1

OVXF 899L = assay: 2D monolayer CellTiter-Blue viability, ovarian cancer OVXF 899L (P-gp expressing, multidrug resistant); type: cell-based; settings: for Test/Control (%) at Drug Concentration: 72 h; for IC50: OVXF 899L
Method: (§2) Mebendazole was tested in vitro across a panel of 12 tumor cell lines of ovarian and renal cancer by using a 2D monolayer assay. […] OVXF 899L and RXF 486L are P-gp expressing, multidrug resistant cell lines.
(§3) Anti-tumor activity is expressed as absolute and relative IC50/70 values, calculated by 4-parameter non-linear curve fit.

human P-gp transporter = human P-gp transporter (Homo sapiens, UniProt P08183); assay: in vitro; settings: Caco-2
Chain of human P-gp transporter (P08183 whole entry): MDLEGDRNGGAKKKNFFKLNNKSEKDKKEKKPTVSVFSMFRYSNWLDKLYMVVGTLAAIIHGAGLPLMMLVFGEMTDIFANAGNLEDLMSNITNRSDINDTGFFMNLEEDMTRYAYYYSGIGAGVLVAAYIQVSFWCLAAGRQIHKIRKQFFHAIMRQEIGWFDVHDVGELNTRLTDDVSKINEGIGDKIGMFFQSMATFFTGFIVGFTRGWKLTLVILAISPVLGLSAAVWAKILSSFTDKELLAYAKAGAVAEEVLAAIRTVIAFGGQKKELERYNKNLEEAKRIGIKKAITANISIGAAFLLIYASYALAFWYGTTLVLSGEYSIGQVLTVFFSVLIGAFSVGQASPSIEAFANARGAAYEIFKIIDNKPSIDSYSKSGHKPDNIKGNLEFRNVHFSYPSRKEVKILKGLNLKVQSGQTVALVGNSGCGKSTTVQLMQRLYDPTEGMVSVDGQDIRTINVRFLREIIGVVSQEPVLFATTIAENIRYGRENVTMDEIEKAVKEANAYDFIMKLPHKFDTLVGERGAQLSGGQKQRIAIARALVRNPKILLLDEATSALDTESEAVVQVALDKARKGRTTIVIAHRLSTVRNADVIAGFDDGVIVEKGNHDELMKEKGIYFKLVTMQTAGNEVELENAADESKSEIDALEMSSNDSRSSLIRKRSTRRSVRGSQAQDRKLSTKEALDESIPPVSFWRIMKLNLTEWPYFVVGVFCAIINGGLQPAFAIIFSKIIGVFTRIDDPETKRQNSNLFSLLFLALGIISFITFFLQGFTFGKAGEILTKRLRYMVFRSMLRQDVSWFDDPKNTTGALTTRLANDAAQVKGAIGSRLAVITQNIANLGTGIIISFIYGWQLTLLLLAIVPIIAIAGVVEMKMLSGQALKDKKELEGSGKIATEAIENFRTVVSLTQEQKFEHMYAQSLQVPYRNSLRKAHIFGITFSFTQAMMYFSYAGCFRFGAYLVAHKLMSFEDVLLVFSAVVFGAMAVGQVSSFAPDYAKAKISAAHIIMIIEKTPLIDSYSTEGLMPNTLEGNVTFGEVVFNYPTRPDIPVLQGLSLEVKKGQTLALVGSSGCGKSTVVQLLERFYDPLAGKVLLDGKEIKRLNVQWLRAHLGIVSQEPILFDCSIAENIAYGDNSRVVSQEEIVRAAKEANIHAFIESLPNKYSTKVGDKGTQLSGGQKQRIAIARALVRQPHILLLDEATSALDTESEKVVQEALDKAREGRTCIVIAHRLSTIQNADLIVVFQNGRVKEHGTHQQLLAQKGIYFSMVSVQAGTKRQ

P-gp = P-gp (Homo sapiens, UniProt P08183); assay: in vitro; settings: human
Chain of P-gp (P08183 whole entry): as above

786-O = assay: 2D monolayer CellTiter-Blue viability, renal cancer 786-O; type: cell-based; settings: for IC50: Homo sapiens, 786-0, 72 h
Method: as §2, §3

NBXF SK-N-BE(2) = assay: 2D monolayer CellTiter-Blue viability, neuroblastoma SK-N-BE(2); type: cell-based; settings: 72 h
Method: as §1

SXFO U-2-OS = assay: 2D monolayer CellTiter-Blue viability, osteosarcoma U-2-OS; type: cell-based; settings: 72 h
Method: as §1

NBXF SK-N-AS = assay: 2D monolayer CellTiter-Blue viability, neuroblastoma SK-N-AS; type: cell-based; settings: 72 h
Method: as §1

COC(=O)Nc1nc2ccc(C(=O)c3ccccc3)cc2[nH]1 [Mebendazole, methyl N-(6-benzoyl-1H-benzimidazol-2-yl)carbamate]
Test/Control (%) at Drug Concentration (SXFS RH-41; RH-41, 1.0E+00 μM): 5%
Test/Control (%) at Drug Concentration (SXFS RH-41; RH-41, 1.0E+01 μM): 6%
Test/Control (%) at Drug Concentration (SXFS RH-41; RH-41, 1.0E+02 μM): 1%
Test/Control (%) at Drug Concentration (SXFS RH-41; RH-41, 1.0E−01 μM): 81%
Test/Control (%) at Drug Concentration (SXFS RH-41; RH-41, 1.0E−02 μM): 105%
Test/Control (%) at Drug Concentration (SXFS RH-41; RH-41, 3.2E+00 μM): 5%
Test/Control (%) at Drug Concentration (SXFS RH-41; RH-41, 3.2E+01 μM): 4%
Test/Control (%) at Drug Concentration (SXFS RH-41; RH-41, 3.2E−01 μM): 17%
Test/Control (%) at Drug Concentration (SXFS RH-41; RH-41, 3.2E−02 μM): 93%
Test/Control (%) at Drug Concentration (SXFS RH-41; RH-41, 3.2E−03 μM): 95%
IC50 ([1]; read-out: absolute geometric mean IC50): 291 nM
IC50 ([1]; read-out: relative geometric mean IC50): 280 nM
Test/Control (%) at Drug Concentration (NBXF SHEP; 1.0E+00 μM): 20%
Test/Control (%) at Drug Concentration (NBXF SHEP; 1.0E+01 μM): 20%
Test/Control (%) at Drug Concentration (NBXF SHEP; 1.0E+02 μM): 16%
Test/Control (%) at Drug Concentration (NBXF SHEP; 1.0E−01 μM): 72%
Test/Control (%) at Drug Concentration (NBXF SHEP; 1.0E−02 μM): 72%
Test/Control (%) at Drug Concentration (NBXF SHEP; 3.2E+00 μM): 27%
Test/Control (%) at Drug Concentration (NBXF SHEP; 3.2E+01 μM): 18%
Test/Control (%) at Drug Concentration (NBXF SHEP; 3.2E−01 μM): 47%
Test/Control (%) at Drug Concentration (NBXF SHEP; 3.2E−02 μM): 68%
Test/Control (%) at Drug Concentration (NBXF SHEP; 3.2E−03 μM): 72%
Test/Control (%) at Drug Concentration (SXFS 1301; SXFS 1301, 1.0E+00 μM): 35%
Test/Control (%) at Drug Concentration (SXFS 1301; SXFS 1301, 1.0E+01 μM): 38%
Test/Control (%) at Drug Concentration (SXFS 1301; SXFS 1301, 1.0E+02 μM): 8%
Test/Control (%) at Drug Concentration (SXFS 1301; SXFS 1301, 1.0E−01 μM): 84%
Test/Control (%) at Drug Concentration (SXFS 1301; SXFS 1301, 1.0E−02 μM): 106%
Test/Control (%) at Drug Concentration (SXFS 1301; SXFS 1301, 3.2E+00 μM): 33%
Test/Control (%) at Drug Concentration (SXFS 1301; SXFS 1301, 3.2E+01 μM): 36%
Test/Control (%) at Drug Concentration (SXFS 1301; SXFS 1301, 3.2E−01 μM): 55%
Test/Control (%) at Drug Concentration (SXFS 1301; SXFS 1301, 3.2E−02 μM): 98%
Test/Control (%) at Drug Concentration (SXFS 1301; SXFS 1301, 3.2E−03 μM): 101%
Test/Control (%) at Drug Concentration (NBXF SK-N-MC; 1.0E+00 μM): 33%
Test/Control (%) at Drug Concentration (NBXF SK-N-MC; 1.0E+01 μM): 1%
Test/Control (%) at Drug Concentration (NBXF SK-N-MC; 1.0E+02 μM): 0%
Test/Control (%) at Drug Concentration (NBXF SK-N-MC; 1.0E−01 μM): 90%
Test/Control (%) at Drug Concentration (NBXF SK-N-MC; 1.0E−02 μM): 88%
Test/Control (%) at Drug Concentration (NBXF SK-N-MC; 3.2E+00 μM): 6%
Test/Control (%) at Drug Concentration (NBXF SK-N-MC; 3.2E+01 μM): 1%
Test/Control (%) at Drug Concentration (NBXF SK-N-MC; 3.2E−01 μM): 38%
Test/Control (%) at Drug Concentration (NBXF SK-N-MC; 3.2E−02 μM): 100%
Test/Control (%) at Drug Concentration (NBXF SK-N-MC; 3.2E−03 μM): 101%
Test/Control (%) at Drug Concentration (OVXF 899L; OVXF 899, 1.0E+00 μM): 54%
Test/Control (%) at Drug Concentration (OVXF 899L; OVXF 899, 1.0E−01 μM): 92%
Test/Control (%) at Drug Concentration (OVXF 899L; OVXF 899, 1.0E−02 μM): 97%
Test/Control (%) at Drug Concentration (OVXF 899L; OVXF 899, 1.0E−03 μM): 100%
Test/Control (%) at Drug Concentration (OVXF 899L; OVXF 899, 1.0E−04 μM): 88%
Test/Control (%) at Drug Concentration (OVXF 899L; OVXF 899, 3.2E+00 μM): 65%
Test/Control (%) at Drug Concentration (OVXF 899L; OVXF 899, 3.2E−01 μM): 94%
Test/Control (%) at Drug Concentration (OVXF 899L; OVXF 899, 3.2E−02 μM): 94%
Test/Control (%) at Drug Concentration (OVXF 899L; OVXF 899, 3.2E−03 μM): 97%
Test/Control (%) at Drug Concentration (OVXF 899L; OVXF 899, 3.2E−04 μM): 98%
Abs. IC70 (OVXF 899L; OVXF 899, 72 h): >3.200 µM
Rel. IC70 (OVXF 899L; OVXF 899, 72 h): 0.425 µM
Bot. (%) (OVXF 899L; OVXF 899, 72 h, curve fit): 57%
Top (%) (OVXF 899L; OVXF 899, 72 h, curve fit): 95%
IC50 (OVXF 899L; OVXF 899, 72 h, read-out: Abs. IC50): > 3200 nM
IC50 (OVXF 899L; OVXF 899, 72 h, read-out: Rel. IC50): 401 nM
passive permeability (human P-gp transporter): high passive permeability
efflux ratio at 120 min, 10 μM (P-gp; Caco-2): 1.17
Papp A→B at 120 min, 10 μM (P-gp; Caco-2, Papp Mean): 25.4 ×10⁻⁶ cm/s
Papp B→A at 120 min, 10 μM (P-gp; Caco-2, Papp Mean): 29.8 ×10⁻⁶ cm/s
Papp A→B at 120 min, 10 μM (P-gp; Caco-2, Papp Rep 1): 22.4 ×10⁻⁶ cm/s
Papp B→A at 120 min, 10 μM (P-gp; Caco-2, Papp Rep 1): 30.2 ×10⁻⁶ cm/s
Papp A→B at 120 min, 10 μM (P-gp; Caco-2, Papp Rep 2): 28.5 ×10⁻⁶ cm/s
Papp B→A at 120 min, 10 μM (P-gp; Caco-2, Papp Rep 2): 29.4 ×10⁻⁶ cm/s
recovery at 120 min, 10 µM (P-gp; Caco-2, calculated mean % recovery values (range)): 55.7 to 75.1%
Test/Control (%) at Drug Concentration (786-O; 1.0E+00 μM, 72 h): 20%
Test/Control (%) at Drug Concentration (786-O; 1.0E−01 μM, 72 h): 95%
Test/Control (%) at Drug Concentration (786-O; 1.0E−02 μM, 72 h): 87%
Test/Control (%) at Drug Concentration (786-O; 1.0E−03 μM, 72 h): 98%
Test/Control (%) at Drug Concentration (786-O; 1.0E−04 μM, 72 h): 107%
Test/Control (%) at Drug Concentration (786-O; 3.2E+00 μM, 72 h): 9%
Test/Control (%) at Drug Concentration (786-O; 3.2E−01 μM, 72 h): 69%
Test/Control (%) at Drug Concentration (786-O; 3.2E−02 μM, 72 h): 88%
Test/Control (%) at Drug Concentration (786-O; 3.2E−03 μM, 72 h): 97%
Test/Control (%) at Drug Concentration (786-O; 3.2E−04 μM, 72 h): 87%
Abs. IC70 (786-O; 72 h): 0.712 µM
Rel. IC70 (786-O; 72 h): 0.640 µM
Bot. (%) (786-O; 72 h, curve fit): 9%
Top (%) (786-O; 72 h, curve fit): 94%
IC50 (786-O; read-out: Abs. IC50): 470 nM
IC50 (786-O; read-out: Rel. IC50): 457 nM
Test/Control (%) at Drug Concentration (NBXF SK-N-BE(2); 1.0E+00 μM): 13%
Test/Control (%) at Drug Concentration (NBXF SK-N-BE(2); 1.0E+01 μM): 3%
Test/Control (%) at Drug Concentration (NBXF SK-N-BE(2); 1.0E+02 μM): −1%
Test/Control (%) at Drug Concentration (NBXF SK-N-BE(2); 1.0E−01 μM): 55%
Test/Control (%) at Drug Concentration (NBXF SK-N-BE(2); 1.0E−02 μM): 85%
Test/Control (%) at Drug Concentration (NBXF SK-N-BE(2); 3.2E+00 μM): 6%
Test/Control (%) at Drug Concentration (NBXF SK-N-BE(2); 3.2E+01 μM): 2%
Test/Control (%) at Drug Concentration (NBXF SK-N-BE(2); 3.2E−01 μM): 23%
Test/Control (%) at Drug Concentration (NBXF SK-N-BE(2); 3.2E−02 μM): 80%
Test/Control (%) at Drug Concentration (NBXF SK-N-BE(2); 3.2E−03 μM): 87%
Test/Control (%) at Drug Concentration (SXFO U-2-OS; 1.0E+00 μM): 38%
Test/Control (%) at Drug Concentration (SXFO U-2-OS; 1.0E+01 μM): 13%
Test/Control (%) at Drug Concentration (SXFO U-2-OS; 1.0E+02 μM): 6%
Test/Control (%) at Drug Concentration (SXFO U-2-OS; 1.0E−01 μM): 82%
Test/Control (%) at Drug Concentration (SXFO U-2-OS; 1.0E−02 μM): 89%
Test/Control (%) at Drug Concentration (SXFO U-2-OS; 3.2E+00 μM): 19%
Test/Control (%) at Drug Concentration (SXFO U-2-OS; 3.2E+01 μM): 11%
Test/Control (%) at Drug Concentration (SXFO U-2-OS; 3.2E−01 μM): 54%
Test/Control (%) at Drug Concentration (SXFO U-2-OS; 3.2E−02 μM): 86%
Test/Control (%) at Drug Concentration (SXFO U-2-OS; 3.2E−03 μM): 85%
Test/Control (%) at Drug Concentration (NBXF SK-N-AS; 1.0E+00 μM): 31%
Test/Control (%) at Drug Concentration (NBXF SK-N-AS; 1.0E+01 μM): 21%
Test/Control (%) at Drug Concentration (NBXF SK-N-AS; 1.0E+02 μM): 8%
Test/Control (%) at Drug Concentration (NBXF SK-N-AS; 1.0E−01 μM): 62%
Test/Control (%) at Drug Concentration (NBXF SK-N-AS; 1.0E−02 μM): 91%
Test/Control (%) at Drug Concentration (NBXF SK-N-AS; 3.2E+00 μM): 28%
Test/Control (%) at Drug Concentration (NBXF SK-N-AS; 3.2E+01 μM): 19%
Test/Control (%) at Drug Concentration (NBXF SK-N-AS; 3.2E−01 μM): 36%
Test/Control (%) at Drug Concentration (NBXF SK-N-AS; 3.2E−02 μM): 84%
Test/Control (%) at Drug Concentration (NBXF SK-N-AS; 3.2E−03 μM): 89%
